{
  "source": "PubChem BioAssay AID1259409",
  "about": "(Chemical Carcinogenesis Research Information System (CCRIS), 2018)",
  "origin": "cited, not measured here",
  "test_system": "rodent chemically induced tumor inhibition, incidence and multiplicity",
  "assay": "CCRIS tumor inhibitor studies",
  "data": [
    {"smiles": "Cn1c(=O)c2[nH]cnc2n(C)c1=O", "values": [
      {"measurement": "tumour outcome (control, treated, inhibition, significance)", "setting": "Carcinogen: 1,2-DIMETHYLHYDRAZINE, 540-73-8, Dose [Inhibitor]: 0, 600 MG/L IN DRINKING WATER FOR DURATION OF STUDY BEGINNING 7 D PRIOR TO CARCINOGEN TREATMENT (STUDY DURATION: 8 MO), Route [Inhibitor]: ORAL, Species: RAT, Strain/Sex: BD6/MALE, Target Tissue: Type of Lesion: INTESTINE: TUMOR, Dose [Carcinogen]: 20 MG/KG BW 1/WK FOR 20 WK, Promoter: NONE USED", "result": "100%, 100%, 0%, not significant"},
      {"measurement": "tumour outcome (control, treated, inhibition, significance)", "setting": "Carcinogen: 4-(METHYLNITROSAMINO)-1-(3-PYRIDLY)-1-BUTANONE [64091-91-4], Dose [Inhibitor]: 2.5 MG/KG BW 3X/WK FOR 31 WK BEGINNING 1 WK POST LAST CARCINOGEN DOSE (STUDY DURATION: 52 WK), Route [Inhibitor]: SUBCUTANEOUS, Species: HAMSTER, Strain/Sex: SYRIAN/MALE, Target Tissue: Type of Lesion: LUNG: TUMOR, Dose [Carcinogen]: 10 MG/KG BW 3X/WK FOR 20 WK (STUDY DURATION: 52 WK), Promoter: NONE", "result": "12/15 (80.0%), 15/15 (100.0%), -25%, not calculated"},
      {"measurement": "tumour outcome (control, treated, inhibition, significance)", "setting": "Carcinogen: 4-(METHYLNITROSAMINO)-1-(3-PYRIDLY)-1-BUTANONE [64091-91-4], Dose [Inhibitor]: 2.5 MG/KG BW 3X/WK FOR 31 WK BEGINNING 1 WK POST LAST CARCINOGEN DOSE (STUDY DURATION: 52 WK), Route [Inhibitor]: SUBCUTANEOUS, Species: HAMSTER, Strain/Sex: SYRIAN/MALE, Target Tissue: Type of Lesion: NASAL CAVITY: TUMOR, Dose [Carcinogen]: 10 MG/KG BW 3X/WK FOR 20 WK (STUDY DURATION: 52 WK), Promoter: NONE", "result": "4/15 (26.7%), 4/15 (26.7%), 0%, not calculated"},
      {"measurement": "tumour outcome (control, treated, inhibition, significance)", "setting": "Carcinogen: DIETHYLNITROSAMINE, 55-18-5, Dose [Inhibitor]: 0, 600 MG/L IN DRINKING WATER BEGINNING 3 D PRIOR TO FIRST CARCINOGEN DOSE AND CONTINUING TO 14 D POST LAST CARCINOGEN D, Route [Inhibitor]: ORAL, Species: RAT, Strain/Sex: BD6/FEMALE, Target Tissue: Type of Lesion: ESOPHAGUS: TUMOR, Dose [Carcinogen]: 80 MG/KG BW 1/WK FOR 8 WK, Promoter: NONE USED", "result": "15%, 9%, 40%, not significant"},
      {"measurement": "tumour outcome (control, treated, inhibition, significance)", "setting": "Carcinogen: DIETHYLNITROSAMINE, 55-18-5, Dose [Inhibitor]: 0, 600 MG/L IN DRINKING WATER BEGINNING 3 D PRIOR TO FIRST CARCINOGEN DOSE AND CONTINUING TO 14 D POST LAST CARCINOGEN D, Route [Inhibitor]: ORAL, Species: RAT, Strain/Sex: BD6/FEMALE, Target Tissue: Type of Lesion: LIVER: TUMOR, Dose [Carcinogen]: 80 MG/KG BW 1/WK FOR 8 WK, Promoter: NONE USED", "result": "90%, 97%, -8%, not significant"},
      {"measurement": "tumour outcome (control, treated, inhibition, significance)", "setting": "Carcinogen: DIETHYLNITROSAMINE, 55-18-5, Dose [Inhibitor]: 0, 600 MG/L IN DRINKING WATER FOR DURATION OF STUDY BEGINNING 4 D POST CARCINOGEN TREATMENT (STUDY DURATION: 6 MO), Route [Inhibitor]: ORAL, Species: RAT, Strain/Sex: BD6/FEMALE, Target Tissue: Type of Lesion: ESOPHAGUS: TUMOR, Dose [Carcinogen]: 80 MG/KG BW 1/WK FOR 8 WK, Promoter: NONE USED", "result": "15%, 29%, -93%, not significant"},
      {"measurement": "tumour outcome (control, treated, inhibition, significance)", "setting": "Carcinogen: DIETHYLNITROSAMINE, 55-18-5, Dose [Inhibitor]: 0, 600 MG/L IN DRINKING WATER FOR DURATION OF STUDY BEGINNING 4 D POST CARCINOGEN TREATMENT (STUDY DURATION: 6 MO), Route [Inhibitor]: ORAL, Species: RAT, Strain/Sex: BD6/FEMALE, Target Tissue: Type of Lesion: LIVER: TUMOR, Dose [Carcinogen]: 80 MG/KG BW 1/WK FOR 8 WK, Promoter: NONE USED", "result": "90%, 97%, -8%, not significant"},
      {"measurement": "tumour outcome (control, treated, inhibition, significance)", "setting": "Carcinogen: DIETHYLNITROSAMINE, 55-18-5, Dose [Inhibitor]: 0, 600 MG/L IN DRINKING WATER FOR DURATION OF STUDY BEGINNING 7 D PRIOR TO CARCINOGEN TREATMENT (STUDY DURATION: 6 MO), Route [Inhibitor]: ORAL, Species: RAT, Strain/Sex: BD6/FEMALE, Target Tissue: Type of Lesion: ESOPHAGUS: TUMOR, Dose [Carcinogen]: 80 MG/KG BW 1/WK FOR 8 WK, Promoter: NONE USED", "result": "14%, 17%, -21%, not significant"},
      {"measurement": "tumour outcome (control, treated, inhibition, significance)", "setting": "Carcinogen: DIETHYLNITROSAMINE, 55-18-5, Dose [Inhibitor]: 0, 600 MG/L IN DRINKING WATER FOR DURATION OF STUDY BEGINNING 7 D PRIOR TO CARCINOGEN TREATMENT (STUDY DURATION: 6 MO), Route [Inhibitor]: ORAL, Species: RAT, Strain/Sex: BD6/FEMALE, Target Tissue: Type of Lesion: LIVER: TUMOR, Dose [Carcinogen]: 80 MG/KG BW 1/WK FOR 8 WK, Promoter: NONE USED", "result": "100%, 90%, 10%, not significant"},
      {"measurement": "tumour outcome (control, treated, inhibition, significance)", "setting": "Carcinogen: N-ETHYL-N-NITROSOUREA, 759-73-9, Dose [Inhibitor]: 0, 1000 MG/KG IN DIET FOR 12 MO ADMINISTERED TO OFFSPRING OF CARCINOGEN-TREATED MOTHERS (STUDY DURATION: 12 MO), Route [Inhibitor]: ORAL, Species: RAT, Strain/Sex: ALBINO/MALE, FEMALE, Target Tissue: Type of Lesion: BRAIN: TUMOR, Dose [Carcinogen]: 75 MG/KG BW ADMINISTERED INTRAPERITONEALLY TO MOTHERS 21 D POST CONCEPTION, Promoter: NONE USED", "result": "53/63 (84%), 21/41 (51%), 39%, p<0.05"},
      {"measurement": "tumour outcome (control, treated, inhibition, significance)", "setting": "Carcinogen: N-ETHYL-N-NITROSOUREA, 759-73-9, Dose [Inhibitor]: 0, 1000 MG/KG IN DIET FOR 12 MO ADMINISTERED TO OFFSPRING OF CARCINOGEN-TREATED MOTHERS (STUDY DURATION: 12 MO), Route [Inhibitor]: ORAL, Species: RAT, Strain/Sex: ALBINO/MALE, FEMALE, Target Tissue: Type of Lesion: KIDNEY: TUMOR, Dose [Carcinogen]: 75 MG/KG BW ADMINISTERED INTRAPERITONEALLY TO MOTHERS 21 D POST CONCEPTION, Promoter: NONE USED", "result": "23/63 (37%), 6/41 (15%), 59%, p<0.05"},
      {"measurement": "tumour outcome (control, treated, inhibition, significance)", "setting": "Carcinogen: N-ETHYL-N-NITROSOUREA, 759-73-9, Dose [Inhibitor]: 0, 1000 MG/KG IN DIET FOR 12 MO ADMINISTERED TO OFFSPRING OF CARCINOGEN-TREATED MOTHERS (STUDY DURATION: 12 MO), Route [Inhibitor]: ORAL, Species: RAT, Strain/Sex: ALBINO/MALE, FEMALE, Target Tissue: Type of Lesion: PERIPHERAL NERVES: TUMOR, Dose [Carcinogen]: 75 MG/KG BW ADMINISTERED INTRAPERITONEALLY TO MOTHERS 21 D POST CONCEPTION, Promoter: NONE USED", "result": "24/63 (38%), 5/41 (12%), 68%, p<0.05"},
      {"measurement": "tumour outcome (control, treated, inhibition, significance)", "setting": "Carcinogen: N-ETHYL-N-NITROSOUREA, 759-73-9, Dose [Inhibitor]: 0, 1000 MG/KG IN DIET FOR 12 MO ADMINISTERED TO OFFSPRING OF CARCINOGEN-TREATED MOTHERS (STUDY DURATION: 12 MO), Route [Inhibitor]: ORAL, Species: RAT, Strain/Sex: ALBINO/MALE, FEMALE, Target Tissue: Type of Lesion: SPINAL CHORD: TUMOR, Dose [Carcinogen]: 75 MG/KG BW ADMINISTERED INTRAPERITONEALLY TO MOTHERS 21 D POST CONCEPTION, Promoter: NONE USED", "result": "17/63 (27%), 9/41 (22%), 19%, not significant"},
      {"measurement": "tumour outcome (control, treated, inhibition, significance)", "setting": "Carcinogen: URETHANE, 51-79-6, Dose [Inhibitor]: 0.05 UMOL/G BW GIVEN AT 6 HR INTERVALS DURING PERIOD OF 0 TO 36 HR AFTER CARCINOGEN TREATMENT FOLLOWED BY 5 MO OBSERVATI, Route [Inhibitor]: INTRAPERITONEAL, Species: MOUSE, Strain/Sex: ICR/FEMALE, Target Tissue: Type of Lesion: LUNG: PAPILLARY ADENOMA, Dose [Carcinogen]: 0.1 MG/G BW ONCE, Promoter: NONE USED", "result": "31/59 (53%), 25/43 (58%), -9%, not significant"}
    ]}
  ]
}
